In US20250223268A1, “4-Methylsulfonylbenzamide Compound, Preparation Method, Herbicidal Composition And Use” (Jiangsu Flag Chemical Industry Co., Ltd., priority 2022, published 2025):

Key:
Assay in all cases: Greenhouse herbicidal activity assay, post-emergence
Assay type in all cases: in vivo
Eclipta prostrata = details: Post-emergence test, rate 150 g a.i./hm^2, grade by fresh weight inhibition rate
Source text: (§1) Post-emergence: Seeds of gramineous weeds (Echinochloa crusgalli, Echinochloa crusgalli var. zelayensis, Echinochloa phyllopogon, Eleusine indica, Digitaria sanguinalis, Leptochloa chinensis, Setaria viridis, Alopecurus japonicus Steud, Beckmannia syzigachne, Polypogon fugax, Alopecurus aequalis, Lolium multiflorum, Poa annua, Aegilops tataschii, Avena fatua, Alopecurus myosuroides, Bromus japonicus), broadleaf weeds (Eclipta prostrata, Amaranthus retroflexus, Rorippa indica, Myosoton aquaticum, Veronica didyma, Galium aparine, Solanum nigrum, Xanthium sibiricum, Conyza canadensis, Sesbania cannabina, Sagittaria trifolia), and Cyperus iria (Cyperus iria, Scirpus juncoides, Cyperus difformis, etc.) were sown in plastic pots (7 cm diameter) with nutrient soil and bottom holes. Crop seeds (including Oryza sativa subsp. indica, Oryza sativa subsp. japonica, Oryza sativa L. var. Glutinosa matsum, Triticum aestivum, Zea mays, Sorghum bicolor, Setaria italica, Glycine max, Gossypium hirsutum, Brassica napus, Arachis hypogaea) were sown in plastic pots (10 cm diameter) with nutrient soil and bottom holes. After sowing, the pots were placed in the growth chamber until the plants reached the 3-6 leaf stage for foliar spraying. Post-treatment, the materials were air-dried naturally and returned to the growth chamber. Results were assessed 14-21 days later.
(§2) • A: Fresh weight inhibition rate≥80% to 100%; • B: Fresh weight inhibition rate[…] to <80%; • C: Fresh weight inhibition rate≥40% to <60%; • D: Fresh weight inhibition rate≥20% to <40%; • E: Fresh weight inhibition rate<20%; • NT: Not tested.

Leptochloa chinensis = details: Post-emergence test, rate 150 g a.i./hm^2, grade by fresh weight inhibition rate; for pest or weed control at 150 g/ha: Dinebra chinensis, read-out: Control efficacy grade, Leptochloa chinensis
Source text: as §1, §2

Digitaria sanguinalis = details: Post-emergence test, rate 150 g a.i./hm^2; grade by fresh weight inhibition rate
Source text: as §1, §2

Cyperus iria = details: Post-emergence test, rate 150 g a.i./hm^2, grade by fresh weight inhibition rate; for pest or weed control at 150 g/ha: Cyperus iria, read-out: Control efficacy grade, Cyperus iria
Source text: as §1, §2

Echinochloa crusgalli = details: Post-emergence test, rate 150 g a.i./hm^2, grade by fresh weight inhibition rate; for pest or weed control at 150 g/ha: Echinochloa crus-galli, read-out: Control efficacy grade, Echinochloa crusgalli
Source text: as §1, §2

C=C(C)CS(=O)(=O)c1c(S(C)(=O)=O)ccc(C(=O)Nc2nnc(C)o2)c1Cl [Compound 3-146]
Control efficacy grade, Eclipta prostrata (Eclipta prostrata): A (Fresh weight inhibition rate≥80% to 100%)
Control efficacy grade, Leptochloa chinensis (Leptochloa chinensis): A (Fresh weight inhibition rate≥80% to 100%)
Control efficacy grade, Digitaria sanguinalis (Digitaria sanguinalis): B (Fresh weight inhibition rate≥260% to <80%)
Control efficacy grade, Cyperus iria (Cyperus iria): A (Fresh weight inhibition rate≥80% to 100%)

CCc1nnc(NC(=O)c2ccc(S(C)(=O)=O)c(SC(C)C)c2Cl)o1 [Compound 3-388, 2-chloro-N-(5-ethyl-1,3,4-oxadiazol-2-yl)-3-(isopropylthio)-4-(methylsulfonyl)benzamide]
pest or weed control at 150 g/ha (Echinochloa crusgalli): 80 to 100%
pest or weed control at 150 g/ha (Leptochloa chinensis): 80 to 100%
pest or weed control at 150 g/ha (Cyperus iria): 80 to 100%

Cn1nnnc1NC(=O)c1ccc(S(C)(=O)=O)c(SC2CCCCC2)c1Cl [Compound 1-47]
Control efficacy grade, Eclipta prostrata (Eclipta prostrata): A (Fresh weight inhibition rate≥80% to 100%)
Control efficacy grade, Echinochloa crusgalli (Echinochloa crusgalli): B (Fresh weight inhibition rate≥260% to <80%)
Control efficacy grade, Leptochloa chinensis (Leptochloa chinensis): A (Fresh weight inhibition rate≥80% to 100%)
Control efficacy grade, Cyperus iria (Cyperus iria): A (Fresh weight inhibition rate≥80% to 100%)

CS(=O)(=O)c1ccc(C(=O)Nc2nnc(C3CC3)o2)c(Cl)c1[S+]([O-])C1CCCC1 (racemic) [Compound 3-662]
Control efficacy grade, Eclipta prostrata (Eclipta prostrata): A (Fresh weight inhibition rate≥80% to 100%)
Control efficacy grade, Leptochloa chinensis (Leptochloa chinensis): A (Fresh weight inhibition rate≥80% to 100%)
Control efficacy grade, Digitaria sanguinalis (Digitaria sanguinalis): A (Fresh weight inhibition rate≥80% to 100%)
Control efficacy grade, Cyperus iria (Cyperus iria): A (Fresh weight inhibition rate≥80% to 100%)

CCC(C)S(=O)(=O)c1c(S(C)(=O)=O)ccc(C(=O)Nc2nonc2C)c1Cl (racemic) [Compound 4-24]
Control efficacy grade, Eclipta prostrata (Eclipta prostrata): A (Fresh weight inhibition rate≥80% to 100%)
Control efficacy grade, Leptochloa chinensis (Leptochloa chinensis): A (Fresh weight inhibition rate≥80% to 100%)
Control efficacy grade, Digitaria sanguinalis (Digitaria sanguinalis): A (Fresh weight inhibition rate≥80% to 100%)
Control efficacy grade, Cyperus iria (Cyperus iria): A (Fresh weight inhibition rate≥80% to 100%)

CCC(C)Sc1c(S(C)(=O)=O)ccc(C(=O)Nc2nnnn2C)c1Cl (racemic) [Compound 1-16]
Control efficacy grade, Eclipta prostrata (Eclipta prostrata): A (Fresh weight inhibition rate≥80% to 100%)
Control efficacy grade, Echinochloa crusgalli (Echinochloa crusgalli): A (Fresh weight inhibition rate≥80% to 100%)
Control efficacy grade, Leptochloa chinensis (Leptochloa chinensis): A (Fresh weight inhibition rate≥80% to 100%)
Control efficacy grade, Cyperus iria (Cyperus iria): B (Fresh weight inhibition rate≥260% to <80%)

CCCSc1c(S(C)(=O)=O)ccc(C(=O)N(C)c2nnnn2C)c1Cl [Compound 1-97]
Control efficacy grade, Digitaria sanguinalis (Digitaria sanguinalis): B (Fresh weight inhibition rate≥260% to <80%)
Control efficacy grade, Cyperus iria (Cyperus iria): A (Fresh weight inhibition rate≥80% to 100%)

Cn1nnnc1NC(=O)c1ccc(S(C)(=O)=O)c(SC2CCC2)c1Cl [Compound 1-37]
Control efficacy grade, Eclipta prostrata (Eclipta prostrata): A (Fresh weight inhibition rate≥80% to 100%)
Control efficacy grade, Echinochloa crusgalli (Echinochloa crusgalli): A (Fresh weight inhibition rate≥80% to 100%)
Control efficacy grade, Cyperus iria (Cyperus iria): A (Fresh weight inhibition rate≥80% to 100%)

CCC[S+]([O-])c1c(S(C)(=O)=O)ccc(C(=O)N(C)c2nnnn2C)c1Cl (racemic) [Compound 1-98]
Control efficacy grade, Echinochloa crusgalli (Echinochloa crusgalli): A (Fresh weight inhibition rate≥80% to 100%)
Control efficacy grade, Leptochloa chinensis (Leptochloa chinensis): A (Fresh weight inhibition rate≥80% to 100%)
Control efficacy grade, Cyperus iria (Cyperus iria): A (Fresh weight inhibition rate≥80% to 100%)

CCc1nnc(NC(=O)c2ccc(S(C)(=O)=O)c(SC(C)CC)c2Cl)o1 (racemic) [Compound 3-398]
Control efficacy grade, Echinochloa crusgalli (Echinochloa crusgalli): B (Fresh weight inhibition rate≥260% to <80%)
Control efficacy grade, Leptochloa chinensis (Leptochloa chinensis): A (Fresh weight inhibition rate≥80% to 100%)
Control efficacy grade, Cyperus iria (Cyperus iria): A (Fresh weight inhibition rate≥80% to 100%)

CC(C)c1nnc(NC(=O)c2ccc(S(C)(=O)=O)c([S+]([O-])C3CCCC3)c2Cl)o1 (racemic) [Compound 3-546]
Control efficacy grade, Eclipta prostrata (Eclipta prostrata): A (Fresh weight inhibition rate≥80% to 100%)
Control efficacy grade, Echinochloa crusgalli (Echinochloa crusgalli): B (Fresh weight inhibition rate≥260% to <80%)
Control efficacy grade, Leptochloa chinensis (Leptochloa chinensis): A (Fresh weight inhibition rate≥80% to 100%)
Control efficacy grade, Cyperus iria (Cyperus iria): A (Fresh weight inhibition rate≥80% to 100%)

Cn1ncnc1NC(=O)c1ccc(S(C)(=O)=O)c(S(=O)(=O)CC2CC2)c1Cl [Compound 2-31]
Control efficacy grade, Eclipta prostrata (Eclipta prostrata): A (Fresh weight inhibition rate≥80% to 100%)
Control efficacy grade, Echinochloa crusgalli (Echinochloa crusgalli): A (Fresh weight inhibition rate≥80% to 100%)
Control efficacy grade, Leptochloa chinensis (Leptochloa chinensis): A (Fresh weight inhibition rate≥80% to 100%)
Control efficacy grade, Cyperus iria (Cyperus iria): A (Fresh weight inhibition rate≥80% to 100%)

CCCSc1c(S(C)(=O)=O)ccc(C(=O)N(C)c2nnc(C)o2)c1Cl [Compound 3-786, 2-chloro-N-methyl-N-(5-methyl-1,3,4-oxadiazol-2-yl)-4-(methylsulfonyl)-3-(propylthio)benzamide]
pest or weed control at 150 g/ha (Echinochloa crusgalli): 80 to 260%

CC(C)c1nnc(NC(=O)c2ccc(S(C)(=O)=O)c(SC3CC3)c2Cl)o1 [Compound 3-535]
Control efficacy grade, Echinochloa crusgalli (Echinochloa crusgalli): B (Fresh weight inhibition rate≥260% to <80%)
Control efficacy grade, Leptochloa chinensis (Leptochloa chinensis): B (Fresh weight inhibition rate≥260% to <80%)
Control efficacy grade, Cyperus iria (Cyperus iria): A (Fresh weight inhibition rate≥80% to 100%)

CCC(C)[S+]([O-])c1c(S(C)(=O)=O)ccc(C(=O)N(C)c2nnc(C)o2)c1Cl (mixture of isomers) [Compound 3-820]
Control efficacy grade, Echinochloa crusgalli (Echinochloa crusgalli): A (Fresh weight inhibition rate≥80% to 100%)

Cc1nnc(N(C)C(=O)c2ccc(S(C)(=O)=O)c([S+]([O-])CC(C)C)c2Cl)o1 (racemic) [Compound 3-829]
Control efficacy grade, Echinochloa crusgalli (Echinochloa crusgalli): A (Fresh weight inhibition rate≥80% to 100%)
Control efficacy grade, Leptochloa chinensis (Leptochloa chinensis): B (Fresh weight inhibition rate≥260% to <80%)

Cc1nnc(N(C)C(=O)c2ccc(S(C)(=O)=O)c([S+]([O-])C3CC3)c2Cl)o1 (racemic) [Compound 3-812]
Control efficacy grade, Eclipta prostrata (Eclipta prostrata): A (Fresh weight inhibition rate≥80% to 100%)
Control efficacy grade, Echinochloa crusgalli (Echinochloa crusgalli): B (Fresh weight inhibition rate≥260% to <80%)
Control efficacy grade, Leptochloa chinensis (Leptochloa chinensis): B (Fresh weight inhibition rate≥260% to <80%)

Cn1nnnc1NC(=O)c1ccc(S(C)(=O)=O)c(SC2CCCC2)c1Cl [Compound 1-42]
Control efficacy grade, Eclipta prostrata (Eclipta prostrata): A (Fresh weight inhibition rate≥80% to 100%)
Control efficacy grade, Echinochloa crusgalli (Echinochloa crusgalli): B (Fresh weight inhibition rate≥260% to <80%)
Control efficacy grade, Leptochloa chinensis (Leptochloa chinensis): A (Fresh weight inhibition rate≥80% to 100%)
Control efficacy grade, Cyperus iria (Cyperus iria): A (Fresh weight inhibition rate≥80% to 100%)

CC(C)Sc1c(S(C)(=O)=O)ccc(C(=O)Nc2nnc(C3CC3)o2)c1Cl [Compound 3-620, 2-chloro-N-(5-cyclopropyl-1,3,4-oxadiazol-2-yl)-3-(isopropylthio)-4-(methylsulfonyl)benzamide]
pest or weed control at 150 g/ha (Eclipta prostrata; Eclipta prostrata, read-out: Control efficacy grade, Eclipta prostrata): 80 to 260%
pest or weed control at 150 g/ha (Echinochloa crusgalli): 80 to 100%
pest or weed control at 150 g/ha (Leptochloa chinensis): 80 to 100%
pest or weed control at 150 g/ha (Cyperus iria): 80 to 260%

Cn1nnnc1NC(=O)c1ccc(S(C)(=O)=O)c([S+]([O-])C2CCCC2)c1Cl (racemic) [Compound 1-43]
Control efficacy grade, Eclipta prostrata (Eclipta prostrata): A (Fresh weight inhibition rate≥80% to 100%)
Control efficacy grade, Echinochloa crusgalli (Echinochloa crusgalli): A (Fresh weight inhibition rate≥80% to 100%)
Control efficacy grade, Leptochloa chinensis (Leptochloa chinensis): A (Fresh weight inhibition rate≥80% to 100%)
Control efficacy grade, Cyperus iria (Cyperus iria): A (Fresh weight inhibition rate≥80% to 100%)

CC(C)c1nnc(NC(=O)c2ccc(S(C)(=O)=O)c([S+]([O-])C3CCCCC3)c2Cl)o1 (racemic) [Compound 3-551]
Control efficacy grade, Eclipta prostrata (Eclipta prostrata): A (Fresh weight inhibition rate≥80% to 100%)
Control efficacy grade, Echinochloa crusgalli (Echinochloa crusgalli): B (Fresh weight inhibition rate≥260% to <80%)
Control efficacy grade, Leptochloa chinensis (Leptochloa chinensis): A (Fresh weight inhibition rate≥80% to 100%)
Control efficacy grade, Cyperus iria (Cyperus iria): A (Fresh weight inhibition rate≥80% to 100%)

CCC[S+]([O-])c1c(S(C)(=O)=O)ccc(C(=O)N(C)c2ncnn2C)c1Cl (racemic) [Compound 2-78]
Control efficacy grade, Echinochloa crusgalli (Echinochloa crusgalli): A (Fresh weight inhibition rate≥80% to 100%)

CCCC[S+]([O-])c1c(S(C)(=O)=O)ccc(C(=O)N(C)c2nnc(C)o2)c1Cl (racemic) [Compound 3-815]
Control efficacy grade, Echinochloa crusgalli (Echinochloa crusgalli): B (Fresh weight inhibition rate≥260% to <80%)

CS(=O)(=O)c1ccc(C(=O)Nc2nnco2)c(Cl)c1S(=O)(=O)CCC#N [Compound 3-377]
Control efficacy grade, Eclipta prostrata (Eclipta prostrata): A (Fresh weight inhibition rate≥80% to 100%)
Control efficacy grade, Echinochloa crusgalli (Echinochloa crusgalli): C (Fresh weight inhibition rate≥40% to <60%)
Control efficacy grade, Leptochloa chinensis (Leptochloa chinensis): A (Fresh weight inhibition rate≥80% to 100%)
Control efficacy grade, Cyperus iria (Cyperus iria): A (Fresh weight inhibition rate≥80% to 100%)
